US20060293241A1, “Pharmaceutical composition comprising a factor VII polypeptide and epsilon-aminocaproic acid” (Novo Nordisk HealthCare A/G, priority 2001, published 2006)

How the values were obtained:
[1] = tested on: Normal human plasma (NHP); test: Clot lysis assay (Example 2), clot survival in NHP and NHP diluted 1:2 with plasma expander; type: biochemical; conditions: in combination with 40 nM FVIIa
Procedure: Clot lysis assay: Normal human plasma (NHP) and NHP diluted 1:2 with plasma expander Macrodex or HES 200/0.5 used clinically for maintaining blood pressure under surgical procedures was mixed with lipidated recombinant TF (Innovin 1:60,000), CaCl2 10 mM, +/−FVIIa 40 nM, phosfatidylcolin/phosphateidylserine vesicles 6 μM, tPA […] and +/−the indicated doses of e-aminocaproic acid (EACA). Clot survival was measured as the time for clot start until the time for clot lysis.

[2] = tested on: Normal human plasma diluted 10-fold; test: Clot lysis assay (Example 1), turbidity at 650 nm; type: biochemical; conditions: in the presence of 10 nM FVIIa; t-PA 8 nM
Procedure: Clot lysis assay: Normal human plasma diluted 10-fold with buffer (20 mM HEPES, 150 mM NaCl, 5 mM CaCl, pH 7.4) containing Innovin (Dade Behring, 2000-fold dilution), rFVIIa (Novo Nordisk A/S Bagsvaerd, Denmark, various concentrations) and t-PA (American Diagnostica, 8 nM) was added to 96-well ELISA plates and turbidity at 650 nm was measured over time at room temperature. Where indicated, epsilon-Aminocaproic Acid (Sigma, various concentrations) was included.

NCCCCCC(=O)O [EACA, epsilon-aminocaproic acid]
effect on clot survival time [1]: increase in clot survival time | effect on clot lysis time [2]: further prolongation of the clot lysis time | epsilon-Aminocaproic Acid concentration at which effect on clot lysis time was optimal [2]: 1 µM
